According to patent US20260001914A1, “MACROCYCLIC PEPTIDES TARGETING KRAS” (Merck Sharp & Dohme LLC, priority 2022, published 2026):
*1 amine or outer side, *2 acyl side, *3 side chain or, on linkers, in order; H or OH if unused. Where a SMILES comes first, the peptide text is derived from it. Bridges are numbered along the chain shown (N, C = ends). [ ]: non-standard residue; d: D form. Phe(4-guanidino) = N=C(N)Nc1ccc(C[C@H](N)C(=O)O)cc1; N(3-imidazol-1-ylpropyl)Gly = O=C(O)CNCCCn1ccnc1; X22 = CNC(=N)N(C)CCC[C@@H](C(=O)[*:2])N(C)[*:1]; Ala(pyrimidin-5-yl) = N[C@@H](Cc1cncnc1)C(=O)O; Ala(2-pyrazinyl) = N[C@@H](Cc1cnccn1)C(=O)O; X25 = O=C([C@H](Cc1ccc(F)nc1)N[*:1])[*:2]; X13 = O=C([C@H](Cc1ccncc1F)N[*:1])[*:2]; X46 = O=C([C@H](Cc1cccnc1F)N[*:1])[*:2]; Nle(5,5-F2) = CC(F)(F)CC[C@H](N)C(=O)O; Phe(4-F) = N[C@@H](Cc1ccc(F)cc1)C(=O)O; Phe(4-Me) = Cc1ccc(C[C@H](N)C(=O)O)cc1; 1Nal = N[C@@H](Cc1cccc2ccccc12)C(=O)O; NHCH2CH2SCH2CO = O=C(CSCCN[*:1])[*:2]; Phe(2-F) = N[C@@H](Cc1ccccc1F)C(=O)O; Gly(octyl) = CCCCCCCC[C@H](N)C(=O)O; NMe3Pal = CN[C@@H](Cc1cccnc1)C(=O)O; X1 = O=C(C12CC(CN[*:1])(C1)C2)[*:2]; X53 = C[C@@H](CSCC(=O)[*:2])N[*:1]; NMeOrn(Me) = CNCCC[C@H](NC)C(=O)O; Ala(cPr) = N[C@@H](CC1CC1)C(=O)O; NMeF = CN[C@@H](Cc1ccccc1)C(=O)O; PhLac = O=C(O)[C@@H](O)Cc1ccccc1; 3Pal = N[C@@H](Cc1cccnc1)C(=O)O; 4Pal = N[C@@H](Cc1ccncc1)C(=O)O; d3Pal = N[C@H](Cc1cccnc1)C(=O)O; X58 = O=C(C1CC(N[*:1])C1)[*:2]; AllylGly = C=CC[C@H](N)C(=O)O; Ahp(2) = CCCCC[C@H](N)C(=O)O; Cba = N[C@@H](CC1CCC1)C(=O)O; hLeu = CC(C)CC[C@H](N)C(=O)O; NMeS = CN[C@@H](CO)C(=O)O; hSer = N[C@@H](CCO)C(=O)O; αMeC = C[C@](N)(CS)C(=O)O; NMeA = CN[C@@H](C)C(=O)O; Nle = CCCC[C@H](N)C(=O)O; Nva = CCC[C@H](N)C(=O)O; AEEA = NCCOCCOCC(=O)O

target: KRAS-G12D protein (Homo sapiens, UniProt P01116, G12D); experiment: SOS-mediated nucleotide exchange assay (BODIPY-GDP / Tb-streptavidin TR-FRET); assay type: biochemical
Sequence (P01116 1-188 isoform P01116-2 G12D): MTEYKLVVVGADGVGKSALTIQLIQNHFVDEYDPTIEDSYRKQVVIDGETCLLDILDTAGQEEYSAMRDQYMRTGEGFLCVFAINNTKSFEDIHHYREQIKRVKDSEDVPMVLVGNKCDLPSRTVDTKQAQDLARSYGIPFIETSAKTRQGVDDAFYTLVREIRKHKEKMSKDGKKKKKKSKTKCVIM

In order of rising EC50:
1. CCCCC[C@@H]1NC(=O)[C@H](Cc2ccc(OC)cc2)NC(=O)[C@H](CC2CCC2)NC(=O)[C@H](Cc2ccc(NC(=N)N)cc2)NC(=O)[C@H](CCCN(C)C(=N)NC)N(C)C(=O)[C@H](Cc2ccccc2)NC(=O)CSC[C@@](C)(C(N)=O)NC(=O)[C@H](Cc2ccccc2)N(C)C1=O [compound 381, cyclo(F-NMeArg1MeMe-Phe4Gn-cBuA-TyrOMe-Ahp-NMeF-aMeCl-ClAc)] ({CH2CO}-F[X22][Phe(4-guanidino)][Cba]Y(Me)[Ahp(2)][NMeF][αMeC]-NH2; thioether N-8)  0.00169 µM
2. CON=C1C[C@@H](Cc2ccccc2)C(=O)N(C)[C@@H](C)C(=O)N[C@@H](Cc2cncnc2)C(=O)N[C@@H](CC2CC2)C(=O)N[C@@H](Cc2ccccc2F)C(=O)N[C@@H](CCC(C)(F)F)C(=O)N(C)[C@@H](Cc2ccccc2)C(=O)NCC23CC1(C2)C3 (single isomer, unassigned) [compound 178, cyclo(CPhe-NMeA-PyrimAla-cPrA-Phe2F-Nle3F2-NMeF-MeOximamBCP)]  0.0017 µM
3. C[C@H]1C(=O)N[C@@H](Cc2cncnc2)C(=O)N[C@@H](CC2CCC2)C(=O)N[C@@H](Cc2ccccc2F)C(=O)N[C@@H](CCC(C)(F)F)C(=O)N(C)[C@@H](Cc2ccccc2)C(=O)NCC23CC(C2)(C3)C(=O)O[C@@H](Cc2ccccc2)C(=O)N1C [compound 224, cyclo(FLac-NMcA-PyrimAla-cBuA-Phe2F-Nle3F2-NMeF-amBCP)] (cyclo([Cba][Phe(2-F)][Nle(5,5-F2)][NMeF][X1][PhLac][NMeA][Ala(pyrimidin-5-yl)]))  0.00239 µM
4. CC(C)CC[C@@H]1NC(=O)[C@H](Cc2ccncc2F)NC(=O)[C@H](CC2CC2)NC(=O)[C@H](Cc2cncnc2)NC(=O)[C@H](C)N(C)C(=O)[C@H](Cc2ccccc2)OC(=O)C23CC(CNC(=O)[C@H](Cc4ccccc4)N(C)C1=O)(C2)C3 [compound 214, cyclo(FLac-NMeA-PyrimAla-cPrA-4Pal2F-hL-NMeF-amBCP)] (cyclo([Ala(cPr)][X13][hLeu][NMeF][X1][PhLac][NMeA][Ala(pyrimidin-5-yl)]))  0.00269 µM
5. CCCCC[C@@H]1NC(=O)[C@H](Cc2ccc(OC)cc2)NC(=O)[C@H](CC2CCC2)NC(=O)[C@H](Cc2ccc(NC(=N)N)cc2)NC(=O)[C@H](CCCNC(=N)N)NC(=O)[C@H](Cc2ccccc2)NC(=O)CSC[C@H](C(N)=O)NC(=O)[C@H](Cc2ccccc2)N(C)C1=O [compound 352, cyclo(F-R-Phe4Gn-cBuA-TyrOMe-Ahp-NMeF-dCl-ClAc)] ({CH2CO}-FR[Phe(4-guanidino)][Cba]Y(Me)[Ahp(2)][NMeF][dC]-NH2; thioether N-8)  0.00492 µM
6. CCCC[C@@H]1NC(=O)[C@H](Cc2ccc(NC(=N)N)cc2)NC(=O)[C@H](CCCNC(=N)N)NC(=O)[C@H](Cc2ccccc2)NC(=O)C2CC(C2)NC(=O)[C@H](Cc2ccccc2)N(C)C(=O)[C@H](CCCC)NC(=O)[C@H](Cc2ccc(OC)cc2)NC1=O [compound 92, cyclo(F-R-Phe4Gn-Nle-TyrOMe-Nle-NMeF-acBu)] (cyclo(FR[Phe(4-guanidino)][Nle]Y(Me)[Nle][NMeF][X58]))  0.0139 µM
7. CCCCC[C@@H]1NC(=O)[C@H](Cc2ccc(OC)cc2)NC(=O)[C@H](CC2CCC2)NC(=O)[C@H](Cc2ccc(NC(=N)N)cc2)NC(=O)[C@H](CCCNC)N(C)C(=O)[C@H](Cc2ccccc2)NC(=O)CSC[C@@](C)(C(N)=O)NC(=O)[C@H](Cc2ccccc2)N(C)C1=O [compound 385, cyclo(F-NMeOrnMe-Phe4Gn-cBuA-TyrOMe-Ahp-NMeF-aMeCl-ClAc)] ({CH2CO}-F[NMeOrn(Me)][Phe(4-guanidino)][Cba]Y(Me)[Ahp(2)][NMeF][αMeC]-NH2; thioether N-8)  0.0197 µM
8. CCCC[C@@H]1NC(=O)[C@H](Cc2cncnc2)NC(=O)[C@H](C)N(C)C(=O)[C@H](Cc2ccccc2)OC(=O)C23CC(CNC(=O)[C@H](Cc4cccnc4)N(C)C(=O)[C@H](CCCC)NC(=O)[C@H](Cc4ccccc4F)NC1=O)(C2)C3 [compound 237, cyclo(FLac-NMeA-PyrimAla-Nle-Phe2F-Nle-NMe3Pal-amBCP)] (cyclo([NMe3Pal][X1][PhLac][NMeA][Ala(pyrimidin-5-yl)][Nle][Phe(2-F)][Nle]))  0.0337 µM
9. CCCC[C@@H]1NC(=O)[C@H](Cc2ccc(OC)cc2)NC(=O)[C@H](CC2CCC2)NC(=O)[C@@H](Cc2cccnc2)NC(=O)[C@H](CCCNC(=N)N)NC(=O)[C@H](Cc2ccccc2)NC(=O)CSC[C@H](C)NC(=O)[C@H](Cc2ccccc2)N(C)C1=O [compound 180, cyclo(F-R-d3Pal-cBuA-TyrOMe-Nle-NMeF-Smcysteamine-ClAc)] (cyclo([Cba]Y(Me)[Nle][NMeF][X53]FR[d3Pal]))  0.0378 µM
10. CCCC[C@@H]1NC(=O)[C@H](Cc2cccnc2)NC(=O)[C@H](C)N(C)C(=O)[C@H](Cc2ccc(C)cc2)NC(=O)C23CC(CNC(=O)[C@H](Cc4cccnc4)N(C)C(=O)[C@H](CCCC)NC(=O)[C@H](Cc4ccccc4F)NC1=O)(C2)C3 [compound 170, cyclo(Phe4Me-NMeA-3Pal-Nle-Phe2F-Nle-NMe3Pal-amBCP)] (cyclo([3Pal][Nle][Phe(2-F)][Nle][NMe3Pal][X1][Phe(4-Me)][NMeA]))  0.0911 µM
11. CCCC[C@@H]1NC(=O)[C@H](Cc2ccncc2)NC(=O)[C@H](CCCNC(=N)N)NC(=O)[C@H](Cc2cccc3ccccc23)NC(=O)CSC[C@H](C(=O)O)NC(=O)[C@H](Cc2ccccc2)N(C)C(=O)[C@H](CCCC)NC(=O)[C@H](Cc2ccc(O)cc2)NC1=O [compound 198, cyclo(INal-R-4Pal-Nle-Y-Nle-NMeF-dC-ClAc)] ({CH2CO}-[1Nal]R[4Pal][Nle]Y[Nle][NMeF][dC]-OH; thioether N-8)  0.299 µM
12. CCCC[C@@H]1NC(=O)[C@H](Cc2ccncc2)NC(=O)[C@H](CCCNC(=N)N)NC(=O)[C@H](Cc2ccc(F)cc2)NC(=O)CSCCNC(=O)[C@H](Cc2ccccc2)N(C)C(=O)[C@H](CCCC)NC(=O)[C@H](Cc2ccc(OC)cc2)NC1=O [compound 90, cyclo(Phe4F-R-4Pal-Nle-TyrOMe-Nle-NMeF-Cysteamine-ClAc)] (cyclo([4Pal][Nle]Y(Me)[Nle][NMeF][NHCH2CH2SCH2CO][Phe(4-F)]R))  0.432 µM
13. CCCCC[C@@H]1NC(=O)[C@H](Cc2ccc(O)cc2)NC(=O)[C@H](CC(C)C)NC(=O)[C@H](Cc2ccc(O)cc2)NC(=O)[C@H](CCCNC(=N)N)NC(=O)[C@H](Cc2ccccc2)NC(=O)CSC[C@@H](C(=O)NCCOCCOCC(N)=O)NC(=O)[C@H](Cc2ccccc2)N(C)C1=O [compound 57, cyclo(F-R-Y-L-Y-Ahp-NMeF-C3-ClAc)] ({CH2CO}-FRYLY[Ahp(2)][NMeF]C[AEEA]-NH2; thioether N-8)  0.482 µM
14. CCCCCCCC[C@@H]1NC(=O)[C@H](Cc2ccc(O)cc2)NC(=O)[C@H](CC(C)C)NC(=O)[C@H](Cc2ccc(O)cc2)NC(=O)[C@H](CCCNC(=N)N)NC(=O)[C@H](Cc2ccccc2)NC(=O)CSC[C@@H](C(=O)NCC(=O)N[C@@H](CCCCN)C(=O)N[C@@H](CCCCN)C(N)=O)NC(=O)[C@H](Cc2ccccc2)N(C)C1=O [compound 59, cyclo(-F-R-Y-L-Y-Aca-NMeF-C2-ClAc)] ({CH2CO}-FRYLY[Gly(octyl)][NMeF]CGKK-NH2; thioether N-8)  0.812 µM
15. CCCC[C@@H]1NC(=O)[C@H](Cc2ccc(F)nc2)NC(=O)[C@H](C)N(C)C(=O)[C@H](Cc2ccccc2)OC(=O)C23CC(CNC(=O)[C@H](Cc4ccccc4)N(C)C(=O)[C@H](CCC)NC(=O)[C@H](Cc4ccccc4F)NC1=O)(C2)C3 [compound 234, cyclo(FLac-NMeA-4F3Pal-Nle-Phe2F-Nva-NMeF-amBCP)] (cyclo([NMeA][X25][Nle][Phe(2-F)][Nva][NMeF][X1][PhLac]))  0.997 µM
16. CCCC[C@@H]1NC(=O)[C@H](Cc2ccccc2F)NC(=O)[C@H](CC2CCC2)NC(=O)[C@@H](Cc2cccnc2)NC(=O)CN(CCCn2ccnc2)C(=O)[C@H](Cc2ccccc2)NC(=O)C23CC(CNC(=O)[C@H](Cc4cccnc4)N(C)C1=O)(C2)C3 [compound 181, cyclo(F-IPG-d3Pal-cBuA-Phe2F-Nle-NMe3Pal-amBCP)] (cyclo(F[N(3-imidazol-1-ylpropyl)Gly][d3Pal][Cba][Phe(2-F)][Nle][NMe3Pal][X1]))  1.23 µM
17. CCCC[C@@H]1NC(=O)[C@H](Cc2cccnc2F)NC(=O)[C@H](C)N(C)C(=O)[C@H](Cc2ccccc2)OC(=O)C23CC(CNC(=O)[C@H](Cc4cccnc4)N(C)C(=O)[C@H](CCCC)NC(=O)[C@H](Cc4ccccc4F)NC1=O)(C2)C3 [compound 117, cyclo(FLac-NMeA~3Pal2F-Nle-Phe2F-Nle-NMe3Pal-amBCP)] (cyclo([NMe3Pal][X1][PhLac][NMeA][X46][Nle][Phe(2-F)][Nle]))  1.45 µM
18. CCCC[C@@H]1NC(=O)[C@H](Cc2cnccn2)NC(=O)[C@H](C)N(C)C(=O)[C@H](Cc2ccccc2)OC(=O)C23CC(CNC(=O)[C@H](Cc4ccccc4)N(C)C(=O)[C@H](CCCC)NC(=O)[C@H](Cc4ccccc4F)NC1=O)(C2)C3 [compound 322, cyclo(FLac-NMeA-AlaPyrz-Nle-Phe2F-Nle-NMeF-amBCP)] (cyclo([NMeA][Ala(2-pyrazinyl)][Nle][Phe(2-F)][Nle][NMeF][X1][PhLac]))  2.31 µM
19. CCCC[C@@H]1NC(=O)[C@H](Cc2ccc(O)cc2)NC(=O)[C@H](CCOC)NC(=O)[C@H](Cc2ccc(O)cc2)NC(=O)[C@H](CCCNC(=N)N)NC(=O)[C@H](Cc2ccccc2)NC(=O)CSCCNC(=O)[C@H](Cc2ccccc2)N(C)C1=O [compound 77, cyclo(F-R-Y-hSOMe-Y-Nle-NMeF-Cysteamine-ClAc)] (cyclo(FRY[hSer](Me)Y[Nle][NMeF][NHCH2CH2SCH2CO]))  2.85 µM
20. CCCC[C@@H]1NC(=O)[C@H](Cc2cccnc2)NC(=O)[C@H](COC)N(C)C(=O)[C@H](Cc2ccccc2)OC(=O)C23CC(CNC(=O)[C@H](Cc4cccnc4)N(C)C(=O)[C@H](CCCC)NC(=O)[C@H](Cc4ccccc4F)NC1=O)(C2)C3 [compound 255, cyclo(FLac-nMeSMe-3Pal-Nle-Phe2F-Nle-NMe3Pal-amBCP)] (cyclo([3Pal][Nle][Phe(2-F)][Nle][NMe3Pal][X1][PhLac][NMeS](Me)))  6.41 µM
21. CCCC[C@@H]1NC(=O)[C@@H]2C/C=C\C[C@@H](C(N)=O)NC(=O)[C@H](CSCC(=O)N[C@@H](Cc3ccccc3)C(=O)N[C@@H](CCCNC(=N)N)C(=O)N[C@@H](Cc3cccnc3)C(=O)N[C@@H](CC3CCC3)C(=O)N2)NC(=O)[C@H](Cc2cccnc2)N(C)C1=O [SEQ ID NO: 186, cyclo(C1Ac-F-R-3Pal-cBuA-Ape-Nle-NMe3Pal-C)] ({CH2CO}-FR[3Pal][Cba][AllylGly][Nle][NMe3Pal]C[AllylGly]-NH2; staple (Z) 5-9; thioether N-8)  7.27 µM
